Results taken from patent US9493430B2, “Biaryl- or heterocyclic biaryl-substituted cyclohexene derivative compounds as CETP inhibitors” (CHONG KUN DANG PHARMACEUTICAL CORP., priority 2013, dated 2016).
pIC50: −log10 of the molar value.

Tests used:
CETP = CETP (Homo sapiens (Human), UniProt P11597); assay: Test for inhibition of cholesteryl ester transfer (in vitro); assay type: biochemical; conditions: human plasma as CETP source, LDL from healthy persons as acceptor, rHDL-agarose donor, 37° C.
From the text: Test for Inhibition of Cholesteryl Ester Transfer (In Vitro)
1. Construction of Cholesteryl Ester Donor
To construct a cholesteryl ester donor to be used in the test, radiolabeled recombinant HDL containing […] (GE healthcare, TRK886, 3.5 μCi/mg of apoA-1) and apoA-1 was synthesized. Then, rHDL-agarose having the recombinant HDL immobilized thereon by CNBr-activated Sepharose 4B (Amersham Biosciences, Sweden) resin was used in the test.
2. Cholesteryl Ester Transfer Test
As a protein source for cholesteryl ester transfer, plasma from healthy persons was used, and as a cholesteryl ester receptor, LDL from healthy persons was used. Samples were treated with each test compound to final concentrations of 16, 80, 400, 2000 and 10000 nM and analyzed in duplicate. For the cholesteryl ester transfer test, 20 μl of plasma, 50 μl of LDL (0.25 mg/ml) and 50 μl of rHDL-agarose (0.25 mg/ml) were added, and a solution containing a test compound was added, followed by reaction at 37° C. Then, centrifugation was performed at 4° C. for 3 minutes to stop the reaction, and 150 μl of the supernatant was taken and transferred to a 96-well plate for radioactivity measurement, and the radioactivity of the plate was measured with a beta-ray detector.
(§1) 3. Statistical Processing
The ratio of [^3H]-cholesteryl oleate from HDL to LDL was calculated and used as a result value, and from the result value, IC50 value was calculated using GraphPad Prism 5.0.

golden Syrian hamsters = assay: Test for anti-hyperlipidemic effect in hamsters (in vivo); conditions: Mesocricetus auratus, po, 3 mg/kg orally for 5 days, blood 4 hours after final administration, vs control; for inhibition in vivo at 3 mg/kg: read-out: Decrease in LDL-c (%); for change in vivo at 3 mg/kg: read-out: Increase in HDL-c (%)
From the text: Test for Anti-Hyperlipidemic Effect in Hamsters (In Vivo)
In this test, 8-week-old male golden Syrian hamsters were used. The breeding room was maintained at constant temperature and constant humidity and a 12-hr light/12-hr dark cycle. The animals were allowed access to feed and water ad libitum.
2. Anti-Hyperlipidemic Test in Hamsters
The test animals were acclimated for 1 week before use in the test. The test animals were divided according to body weight into several groups, each consisting of 5-8 animals, and were then administered orally with a dose of 3 mg/kg. A solvent control and a CETP inhibitor were dissolved in imwitor 742: tween 80 (1:1) and administered orally for 5 days, and at 4 hours after the final administration, blood was collected from the heart. The collected blood was centrifuged at 3000 rpm for 15 minutes, and the separated serum was measured for HDL-Cholesterol (Biosystem) and LDL-Cholesterol (Biosystem) using a biochemical analysis instrument (ILab 300 plus, Instrumentation Laboratory).
as §1
All test results were expressed as Mean±SEM, and to evaluate the effect of each test group, each test group was compared with the control group using one-way ANOVA test (Dunnett's test, p<0.001).

Chain of CETP (P11597 18-493): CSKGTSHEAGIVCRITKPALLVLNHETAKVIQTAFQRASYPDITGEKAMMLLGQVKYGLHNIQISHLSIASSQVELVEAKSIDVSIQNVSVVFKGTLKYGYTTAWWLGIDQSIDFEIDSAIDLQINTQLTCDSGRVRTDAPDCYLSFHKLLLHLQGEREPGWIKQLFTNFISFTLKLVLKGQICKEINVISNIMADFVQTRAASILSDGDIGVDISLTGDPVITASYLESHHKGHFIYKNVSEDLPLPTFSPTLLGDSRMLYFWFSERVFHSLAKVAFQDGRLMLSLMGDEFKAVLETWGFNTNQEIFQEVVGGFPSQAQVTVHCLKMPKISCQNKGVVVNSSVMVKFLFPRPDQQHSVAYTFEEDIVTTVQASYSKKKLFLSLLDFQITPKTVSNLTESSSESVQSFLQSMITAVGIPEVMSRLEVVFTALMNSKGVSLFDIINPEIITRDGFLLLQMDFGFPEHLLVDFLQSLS

| pIC50 (CETP) | Structure (SMILES) | inhibition in vivo at 3 mg/kg (golden Syrian hamsters) [%] | change in vivo at 3 mg/kg (golden Syrian hamsters) [%] |
| --- | --- | --- | --- |
| 8.30 | C[C@H]1[C@@H](c2cc(C(F)(F)F)cc(C(F)(F)F)c2)OC(=O)N1CC1=C(c2cc(F)cc(-c3ccc(C(=O)O)cc3C(F)(F)F)c2)CCC(C)(C)C1 [Compound 668, 3′-(2-(((4S,5R)-5-(3,5-bis(trifluoromethyl)phenyl)-4-methyl-2-oxooxazolidin-3-yl)methyl)-4,4-dimethylcyclohex-1-enyl)-5′-fluoro-2-(trifluoromethyl)biphenyl-4-carboxylic acid] | 16 | 44 |
| 8.24 | COc1ccc(-c2ccc(C(=O)O)cc2C)cc1C1=C(CN2C(=O)O[C@H](c3cc(C(F)(F)F)cc(C(F)(F)F)c3)[C@@H]2C)CC(C)(C)CC1 [Compound 554, 3′-(2-(((4S,5R)-5-(3,5-bis(trifluoromethyl)phenyl)-4-methyl-2-oxooxazolidin-3-yl)methyl)-4,4-dimethylcyclohex-1-enyl)-4′-methoxy-2-methylbiphenyl-4-carboxylic acid] | 42 | 72 |
| 8.82 | COc1ccc(-c2c(F)cc(C(=O)O)cc2F)cc1C1=C(CN2C(=O)O[C@H](c3cc(C(F)(F)F)cc(C(F)(F)F)c3)[C@@H]2C)CC(C)(C)CC1 [Compound 593, 3′-(2-(((4S,5R)-5-(3,5-bis(trifluoromethyl)phenyl)-4-methyl-2-oxooxazolidin-3-yl)methyl)-4,4-dimethylcyclohex-1-enyl)-2,6-difluoro-4′-methoxybiphenyl-4-carboxylic acid] | 29 | 61 |
| 8.72 | COc1cc(F)c(-c2ccc(C(=O)O)cc2Cl)cc1C1=C(CN2C(=O)O[C@H](c3cc(C(F)(F)F)cc(C(F)(F)F)c3)[C@@H]2C)CC(C)(C)CC1 [Compound 631, 5′-(2-(((4S,5R)-5-(3,5-bis(trifluoromethyl)phenyl)-4-methyl-2-oxooxazolidin-3-yl)methyl)-4,4-dimethylcyclohex-1-enyl)-2-chloro-2′-fluoro-4′-methoxybiphenyl-4-carboxylic acid] | 30 | 56 |
| 8.60 | COc1cc(F)c(-c2ccc(C(=O)O)cc2F)cc1C1=C(CN2C(=O)O[C@H](c3cc(C(F)(F)F)cc(C(F)(F)F)c3)[C@@H]2C)CC(C)(C)CC1 [Compound 661, 5′-(2-(((4S,5R)-5-(3,5-bis(trifluoromethyl)phenyl)-4-methyl-2-oxooxazolidin-3-yl)methyl)-4,4-dimethylcyclohex-1-enyl)-2,2′-difluoro-4′-methoxybiphenyl-4-carboxylic acid] | 20 | 53 |
| 8.27 | COc1ncc(-c2ccc(C(=O)O)cc2C)cc1C1=C(CN2C(=O)O[C@H](c3cc(C(F)(F)F)cc(C(F)(F)F)c3)[C@@H]2C)CC(C)(C)CC1 [Compound 557, 4-(3-(2-(((4S,5R)-5-(3,5-bis(trifluoromethyl)phenyl)-4-methyl-2-oxooxazolidin-3-yl)methyl)-4,4-dimethylcyclohex-1-enyl)-2-methoxypyridin-5-yl)-3-methylbenzoic acid] | 39 | 77 |
| 8.18 | Cc1cc(C(=O)O)ccc1-c1cc(C2=C(CN3C(=O)O[C@H](c4cc(C(F)(F)F)cc(C(F)(F)F)c4)[C@@H]3C)CC(C)(C)CC2)ccc1F [Compound 681, 5′-(2-(((4S,5R)-5-(3,5-bis(trifluoromethyl)phenyl)-4-methyl-2-oxooxazolidin-3-yl)methyl)-4,4-dimethylcyclohex-1-enyl)-2′-fluoro-2-methylbiphenyl-4-carboxylic acid] | 29 | 25 |
| 8.80 | COc1ccc(-c2ccc(C(=O)O)cc2C(F)(F)F)cc1C1=C(CN2C(=O)O[C@H](c3cc(C(F)(F)F)cc(C(F)(F)F)c3)[C@@H]2C)CC(C)(C)CC1 [Compound 618, 3′-(2-(((4S,5R)-5-(3,5-bis(trifluoromethyl)phenyl)-4-methyl-2-oxooxazolidin-3-yl)methyl)-4,4-dimethylcyclohex-1-enyl)-4′-methoxy-2-(trifluoromethyl)biphenyl-4-carboxylic acid] | 26 | 65 |
| 7.92 | Cc1cc(C(=O)O)ccc1-c1cc(F)cc(C2=C(CN3C(=O)O[C@H](c4cc(C(F)(F)F)cc(C(F)(F)F)c4)[C@@H]3C)CC(C)(C)CC2)c1 [Compound 650, 3′-(2-(((4S,5R)-5-(3,5-bis(trifluoromethyl)phenyl)-4-methyl-2-oxooxazolidin-3-yl)methyl)-4,4-dimethylcyclohex-1-enyl)-5′-fluoro-2-methylbiphenyl-4-carboxylic acid] | 24 | 50 |
| 8.41 | COc1cc(F)c(-c2ccc(C(=O)O)cc2C)cc1C1=C(CN2C(=O)O[C@H](c3cc(C(F)(F)F)cc(C(F)(F)F)c3)[C@@H]2C)CC(C)(C)CC1 [Compound 574, 5′-(2-(((4S,5R)-5-(3,5-bis(trifluoromethyl)phenyl)-4-methyl-2-oxooxazolidin-3-yl)methyl)-4,4-dimethylcyclohex-1-enyl)-2′-fluoro-4′-methoxy-2-methylbiphenyl-4-carboxylic acid] | 36 | 41 |
| 7.97 | Cc1cc(C(=O)O)ccc1-c1cccc(C2=C(CN3C(=O)O[C@H](c4cc(C(F)(F)F)cc(C(F)(F)F)c4)[C@@H]3C)CC(C)(C)CC2)c1 [Compound 651, 3′-(2-(((4S,5R)-5-(3,5-bis(trifluoromethyl)phenyl)-4-methyl-2-oxooxazolidin-3-yl)methyl)-4,4-dimethylcyclohex-1-enyl)-2-methylbiphenyl-4-carboxylic acid] | – | – |
| 7.61 | COc1cc(C2=C(CN3C(=O)O[C@H](c4cc(C(F)(F)F)cc(C(F)(F)F)c4)[C@@H]3C)CC(C)(C)CC2)cc(-c2ccc(C(=O)O)cc2C)c1 [Compound 689, 3′-(2-(((4S,5R)-5-(3,5-bis(trifluoromethyl)phenyl)-4-methyl-2-oxooxazolidin-3-yl)methyl)-4,4-dimethylcyclohex-1-enyl)-5′-methoxy-2-methylbiphenyl-4-carboxylic acid] | – | – |
| 8.23 | CCNC(=O)c1ccc(-c2ccc(F)c(C3=C(CN4C(=O)O[C@H](c5cc(C(F)(F)F)cc(C(F)(F)F)c5)[C@@H]4C)CC(C)(C)CC3)c2)c(C(F)(F)F)c1 [Compound 756, 3′-(2-(((4S,5R)-5-(3,5-bis(trifluoromethyl)phenyl)-4-methyl-2-oxooxazolidin-3-yl)methyl)-4,4-dimethylcyclohex-1-enyl)-N-ethyl-4′-fluoro-2-(trifluoromethyl)biphenyl-4-carboxamide] | – | – |
| 8.72 | COc1cc(C)c(-c2ccc(C(=O)O)cc2C)cc1C1=C(CN2C(=O)O[C@H](c3cc(C(F)(F)F)cc(C(F)(F)F)c3)[C@@H]2C)CC(C)(C)CC1 [Compound 684, 5′-(2-(((4S,5R)-5-(3,5-bis(trifluoromethyl)phenyl)-4-methyl-2-oxooxazolidin-3-yl)methyl)-4,4-dimethylcyclohex-1-enyl)-4′-methoxy-2,2′-dimethylbiphenyl-4-carboxylic acid] | – | – |
